Measured values as given in ChEMBL document CHEMBL5230098, “The ups and downs of Poly(ADP-ribose) Polymerase-1 inhibitors in cancer therapy-Current progress and future direction” (Eur J Med Chem, 2020).

What was measured:
[1] = biological target: Poly [ADP-ribose] polymerase 1 (Homo sapiens, UniProt P09874); assay: Inhibition of PARP1 (unknown origin)
[2] = Aqueous solubility of compound; type: physicochemical
[3] = Oral bioavailability in Sprague-Dawley rat at 4 mg/kg administered as single dose measured for 24 hrs by HPLC/tandem mass spectrometry; type: ADME, organism-based; conditions: in vivo

Poly [ADP-ribose] polymerase 1, sequence (P09874 whole entry): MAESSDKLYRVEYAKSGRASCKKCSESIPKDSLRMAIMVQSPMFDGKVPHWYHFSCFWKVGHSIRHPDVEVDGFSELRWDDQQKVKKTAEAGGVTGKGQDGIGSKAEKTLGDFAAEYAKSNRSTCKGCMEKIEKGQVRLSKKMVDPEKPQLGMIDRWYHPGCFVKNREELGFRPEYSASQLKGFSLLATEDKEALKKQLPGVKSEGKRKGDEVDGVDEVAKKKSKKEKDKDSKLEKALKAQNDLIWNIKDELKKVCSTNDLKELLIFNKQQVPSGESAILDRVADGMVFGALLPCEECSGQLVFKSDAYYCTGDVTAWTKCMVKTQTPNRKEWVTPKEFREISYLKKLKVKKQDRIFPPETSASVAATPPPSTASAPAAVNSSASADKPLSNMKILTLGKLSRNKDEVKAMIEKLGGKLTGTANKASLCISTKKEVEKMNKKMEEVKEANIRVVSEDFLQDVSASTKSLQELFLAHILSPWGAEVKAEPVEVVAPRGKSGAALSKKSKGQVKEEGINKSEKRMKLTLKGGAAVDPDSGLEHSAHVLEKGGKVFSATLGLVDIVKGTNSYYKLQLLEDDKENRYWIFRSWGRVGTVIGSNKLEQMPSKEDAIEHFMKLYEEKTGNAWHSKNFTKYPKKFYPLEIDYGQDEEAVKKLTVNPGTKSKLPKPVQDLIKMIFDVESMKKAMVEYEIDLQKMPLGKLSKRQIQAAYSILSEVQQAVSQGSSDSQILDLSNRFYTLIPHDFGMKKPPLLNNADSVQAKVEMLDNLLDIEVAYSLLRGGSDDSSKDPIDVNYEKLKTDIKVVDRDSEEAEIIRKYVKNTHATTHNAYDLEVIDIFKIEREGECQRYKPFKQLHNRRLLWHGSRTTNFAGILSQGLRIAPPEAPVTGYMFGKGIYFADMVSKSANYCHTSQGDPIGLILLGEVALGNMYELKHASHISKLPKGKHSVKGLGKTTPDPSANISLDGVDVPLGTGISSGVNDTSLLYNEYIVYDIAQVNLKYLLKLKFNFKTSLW

IC50 [1] [nM]	SMILES	further results
30000	COc1cccc(C(N)=O)c1	–
150	Cc1cccc2c1CCNC2=O	–
150	O=C1NCCc2c(OCCCCN3CCCCC3)cccc21	–
–	O=C1CCC(=O)N1c1cc(Cc2n[nH]c(=O)c3ccccc23)ccc1F	Ki [1]: 12 nM
–	CNCc1ccc(-c2cc3cc(F)cc(C(N)=O)c3o2)cc1.Cl	solubility [2]: > 35 mg/mL
–	O=C(c1cc(Cc2n[nH]c(=O)c3ccccc23)ccc1F)N1CCn2nc(C(F)(F)F)nc2C1 [FLUZOPARIB]	bioavailability [3]: 35.8%
